Blank lines part the entries; values can stand above or below the compound they belong to.
Assays:
[1] = Half life at 1 uM in the presence of 100 uM reduced glutathione in H2O-Acetonitrile (1:1); assay type: ADME; settings: reduced glutathione solution in H2O-acetonitrile (1:1)
[2] = Half life at 10 uM in the presence of 100 uM reduced glutathione in H2O-Acetonitrile (1:1); assay type: ADME; settings: reduced glutathione solution in H2O-acetonitrile (1:1)
[3] = biological target: T1, Vascular endothelial growth factor receptor 2 (Homo sapiens, UniProt P35968); assay: Inhibition of poly(Glu4-Tyr)peptide phosphorylation by recombinant VEGFR2 at 10 uM ATP and in presence of 5% mouse plasma; assay type: cell-free
T1 sequence (P35968 whole entry): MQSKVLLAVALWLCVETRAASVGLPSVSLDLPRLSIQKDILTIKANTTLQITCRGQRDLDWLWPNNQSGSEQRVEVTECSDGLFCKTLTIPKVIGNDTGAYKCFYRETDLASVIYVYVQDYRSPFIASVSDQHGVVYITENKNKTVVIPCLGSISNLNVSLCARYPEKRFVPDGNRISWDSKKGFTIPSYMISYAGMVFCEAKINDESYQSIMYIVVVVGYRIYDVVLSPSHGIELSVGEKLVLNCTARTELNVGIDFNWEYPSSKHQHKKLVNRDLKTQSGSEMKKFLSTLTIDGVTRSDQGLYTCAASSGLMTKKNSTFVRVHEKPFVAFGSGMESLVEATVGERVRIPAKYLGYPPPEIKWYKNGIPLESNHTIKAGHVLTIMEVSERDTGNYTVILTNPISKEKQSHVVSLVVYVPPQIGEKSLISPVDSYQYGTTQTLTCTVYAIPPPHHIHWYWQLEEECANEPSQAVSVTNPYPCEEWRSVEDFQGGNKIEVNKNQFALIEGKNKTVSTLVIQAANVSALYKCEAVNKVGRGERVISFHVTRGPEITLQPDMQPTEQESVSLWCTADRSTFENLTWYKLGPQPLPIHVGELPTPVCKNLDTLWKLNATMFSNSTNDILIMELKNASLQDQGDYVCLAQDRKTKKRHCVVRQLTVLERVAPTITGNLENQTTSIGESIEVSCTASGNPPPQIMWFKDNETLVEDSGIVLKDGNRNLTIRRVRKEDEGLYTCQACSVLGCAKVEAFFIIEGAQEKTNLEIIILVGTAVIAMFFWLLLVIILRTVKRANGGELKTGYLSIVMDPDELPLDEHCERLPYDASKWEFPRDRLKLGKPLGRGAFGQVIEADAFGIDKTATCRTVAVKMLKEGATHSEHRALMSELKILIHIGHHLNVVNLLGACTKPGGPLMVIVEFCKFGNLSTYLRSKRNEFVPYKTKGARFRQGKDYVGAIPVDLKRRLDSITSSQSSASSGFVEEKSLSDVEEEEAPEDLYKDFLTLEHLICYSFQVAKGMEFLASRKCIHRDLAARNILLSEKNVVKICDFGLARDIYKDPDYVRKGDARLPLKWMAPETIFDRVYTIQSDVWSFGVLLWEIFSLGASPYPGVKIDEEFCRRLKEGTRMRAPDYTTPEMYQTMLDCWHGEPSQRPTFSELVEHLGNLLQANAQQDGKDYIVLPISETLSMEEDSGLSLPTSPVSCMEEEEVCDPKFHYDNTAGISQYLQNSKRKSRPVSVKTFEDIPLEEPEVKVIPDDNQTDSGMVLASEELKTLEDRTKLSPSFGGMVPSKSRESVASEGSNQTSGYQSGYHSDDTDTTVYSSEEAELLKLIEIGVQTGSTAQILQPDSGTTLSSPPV

[4] = biological target: T1, Vascular endothelial growth factor receptor 2; assay: Inhibition of poly(Glu4-Tyr)peptide phosphorylation by recombinant VEGFR2 at 10 uM ATP
[5] = biological target: T1, Vascular endothelial growth factor receptor 2; assay: Inhibition of poly(Glu4-Tyr)peptide phosphorylation by recombinant VEGFR2 at 10 uM ATP and in presence of 100 uM glutathione
[6] = biological target: T1, Vascular endothelial growth factor receptor 2; assay: Inhibitory activity against VEGF stimulated autophosphorylation of VEGFR2 expressed in KDR15 cells; assay type: cell-based

SMILES: COCCOc1cc2ncnc(NC3=CC(=O)C(OCc4ccccc4)=CC3=O)c2cc1OC
half-life at 1 µM [1]: 55 h | IC50 [3]: 366 nM | half-life at 10 µM [2]: 54 h | IC50 [4]: 43 nM | IC50 [5]: 50.3 nM

SMILES: COCCOc1cc2ncnc(NC3=C(Sc4ccccn4)C(=O)C=C(OC)C3=O)c2cc1OC
IC50 [3]: > 1000 nM | IC50 [4]: > 1000 nM | IC50 [5]: > 1000 nM

SMILES: COCCOc1cc2ncnc(NC3=CC(=O)C(OCc4cccc(F)c4)=CC3=O)c2cc1OC
IC50 [3]: 256 nM | IC50 [4]: 31.2 nM | IC50 [5]: 41.9 nM

SMILES: COCCOc1cc2ncnc(NC3=CC(=O)C(OC(CF)CF)=CC3=O)c2cc1OC
half-life at 1 µM [1]: 11 h | half-life at 10 µM [2]: 15 h

SMILES: COCCOc1cc2ncnc(NC3=CC(=O)C(N4CCN(Cc5ccccc5)CC4)=CC3=O)c2cc1OC
half-life at 1 µM [1]: 73 h | half-life at 10 µM [2]: 85 h

SMILES: COCCOc1cc2ncnc(NC3=CC(=O)C(Oc4ccccc4)=CC3=O)c2cc1OC
half-life at 1 µM [1]: < 0.02 h | half-life at 10 µM [2]: < 0.02 h

SMILES: COCCOc1cc2ncnc(NC3=CC(=O)C(Oc4ccc(-n5ccnc5)cc4)=CC3=O)c2cc1OC
half-life at 1 µM [1]: < 0.02 h | half-life at 10 µM [2]: < 0.02 h

Further lines, results first:

half-life at 1 µM [1]: < 0.5 h | half-life at 10 µM [2]: 0.5 h
SMILES: COCCOc1cc2ncnc(NC3=CC(=O)C(OC)=C(Cl)C3=O)c2cc1OC

half-life at 1 µM [1]: 68 h | half-life at 10 µM [2]: 80 h
SMILES: COCCOc1cc2ncnc(NC3=CC(=O)C(OC)=CC3=O)c2cc1OC

IC50 [3]: > 1000 nM | IC50 [4]: > 1000 nM | IC50 [5]: > 1000 nM
SMILES: COCCOc1cc2ncnc(NC3=CC(=O)C(NCC(C)O)=CC3=O)c2cc1OC (configuration not stated)

half-life at 1 µM [1]: 213 h | half-life at 10 µM [2]: 227 h
SMILES: COCCOc1cc2ncnc(NC3=CC(=O)C(OC(C)C)=CC3=O)c2cc1OC

half-life at 1 µM [1]: 2 h | half-life at 10 µM [2]: 3 h
SMILES: COCCOc1cc2ncnc(NC3=CC(=O)C(SC)=CC3=O)c2cc1OC

half-life at 1 µM [1]: 160 h | half-life at 10 µM [2]: 601 h
SMILES: COCCOc1cc2ncnc(NC3=CC(=O)C(N(C)C)=CC3=O)c2cc1OC

half-life at 1 µM [1]: 341 h | half-life at 10 µM [2]: 295 h
SMILES: COCCOc1cc2ncnc(NC3=CC(=O)C(N(C)c4ccccc4)=CC3=O)c2cc1OC

half-life at 1 µM [1]: 62 h | IC50 [3]: > 1000 nM | IC50 [6]: > 1000 nM | half-life at 10 µM [2]: 72 h | IC50 [4]: > 1000 nM | IC50 [5]: > 1000 nM
SMILES: CCOC1=CC(=O)C(Nc2ncnc3cc(OCCOC)c(OC)cc23)=CC1=O

half-life at 1 µM [1]: < 0.02 h | half-life at 10 µM [2]: < 0.02 h
SMILES: COCCOc1cc2ncnc(NC3=CC(=O)C(Cl)=CC3=O)c2cc1OC

From ChEMBL document CHEMBL1141211, “2-(Quinazolin-4-ylamino)-[1,4]benzoquinones as covalent-binding, irreversible inhibitors of the kinase domain of vascular endothelial growth factor receptor-2” (J Med Chem, 2005)
